Experimental data as given in patent publication US9120749B2, “Quinoline derivatives and MELK inhibitors containing the same” (ONCOTHERAPY SCIENCE, INC., priority 2010, dated 2015).
Where two headings read alike, the source gives them in different places.

What was measured:
MELK = MELK (Homo sapiens, UniProt Q14680); assay: Kinase assay: MELK activity, phosphorylation of FITC-labeled histone H3 peptide measured by IMAP fluorescence polarization; type: biochemical; conditions: read-out: IC50 (μM) (kinase assay)
Sequence of MELK (Q14680 whole entry, looked up): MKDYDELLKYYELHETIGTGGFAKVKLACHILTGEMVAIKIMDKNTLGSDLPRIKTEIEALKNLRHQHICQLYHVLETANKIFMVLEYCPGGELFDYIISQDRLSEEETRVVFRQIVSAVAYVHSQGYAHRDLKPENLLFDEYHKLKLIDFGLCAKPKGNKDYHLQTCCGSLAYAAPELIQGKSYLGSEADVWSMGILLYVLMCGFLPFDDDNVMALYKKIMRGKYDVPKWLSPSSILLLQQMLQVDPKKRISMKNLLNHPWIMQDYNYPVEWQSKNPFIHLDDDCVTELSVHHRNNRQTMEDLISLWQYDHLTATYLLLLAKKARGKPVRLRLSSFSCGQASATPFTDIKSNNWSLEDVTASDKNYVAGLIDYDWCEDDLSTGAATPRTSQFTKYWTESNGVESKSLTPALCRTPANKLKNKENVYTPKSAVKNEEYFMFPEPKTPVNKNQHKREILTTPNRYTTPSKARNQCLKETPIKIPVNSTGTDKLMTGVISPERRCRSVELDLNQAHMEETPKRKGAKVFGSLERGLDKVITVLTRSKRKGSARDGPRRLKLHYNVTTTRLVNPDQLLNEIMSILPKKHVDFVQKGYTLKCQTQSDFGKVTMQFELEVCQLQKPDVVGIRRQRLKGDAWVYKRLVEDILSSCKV
Procedure, shortened: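 Kinase reactions ran with or without test compound (final DMSO 1%) on a fluorescein-tagged H3 peptide. Progressive binding solution was added to terminate them. After a half-hour room-temperature incubation, polarization was measured.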

A549 cells = assay: Cell-based assay: anti-proliferative activity, Cell Counting Kit-8, 72 hours (A549); conditions: 72 hours
Procedure, shortened: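 A549 cells seeded in 96-well plates and exposed to candidate inhibitors for 72 hours. Growth measured with Cell Counting Kit-8; IC50 values calculated from the dose response.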

T47D cells = assay: Cell-based assay: anti-proliferative activity, Cell Counting Kit-8, 72 hours (T47D); conditions: Homo sapiens, T47D, 72 h
Procedure, shortened: (§1)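 First, lysates underwent western blotting with anti-MELK antibody to establish expression. Next, cells went into 96-well plates. Then candidate inhibitors were added. Finally, viability was determined by CCK-8 at 72 h and IC50 computed.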

DU4475 cells = assay: Cell-based assay: anti-proliferative activity, Cell Counting Kit-8, 72 hours (DU4475)
HT-1197 cells = assay: Cell-based assay: anti-proliferative activity, Cell Counting Kit-8, 72 hours (HT-1197, negative control without MELK expression); conditions: Homo sapiens, HT1197, 72 h, HT1197 cells (negative control, no MELK expression), 72 hours
Procedure, shortened: as §1

Row | SMILES | IC50 (MELK) [µM] | IC50 (A549 cells; Homo sapiens, A549, 72 h) [µM] | IC50 (T47D cells) [µM] | IC50 (DU4475 cells; Homo sapiens, DU-4475, 72 h) [µM] | IC50 (HT-1197 cells) [µM] | IC50 (A549 cells) [µM] | IC50 (DU4475 cells) [µM]
1 | CCC(=O)c1cnc2ccc(-c3cc(Cl)c(O)c(Cl)c3)cc2c1Nc1ccc(N2CCN(C)CC2)nc1 [Example 737, 1-(6-(3,5-dichloro-4-hydroxyphenyl)-4-(6-(4-methylpiperazin-1-yl)pyridin-3-ylamino)quinolin-3-yl)propan-1-one] | 0.055 | 0.29 | 0.31 | 0.27 | 10 | – | –
2 | CC(=O)c1cnc2ccc(-c3cc(Cl)c(O)c(Cl)c3)cc2c1Nc1ccc(N2CCCC(N)C2)nc1 (stereo not drawn) [Example 681, 1-(4-(6-(3-aminopiperidin-1-yl)pyridin-3-ylamino)-6-(3,5-dichloro-4-hydroxyphenyl)quinolin-3-yl)ethanone] | 0.00086 | 0.017 | 0.0046 | 0.0085 | 0.25 | – | –
3 | O=C(c1cnc2ccc(-c3cc(Cl)c(O)c(Cl)c3)cc2c1NC1CCNCC1)C1CC1 [Example 726, cyclopropyl(6-(3,5-dichloro-4-hydroxypheny)-4-(piperidin-4-ylamino)quinolin-3-yl)methanone] | 0.0057 | 0.52 | 0.56 | 0.14 | 2.4 | – | –
4 | CC(=O)c1cnc2ccc(-c3cc(F)c(O)c(Cl)c3)cc2c1Nc1ccc(CN2CCN(C)CC2)cc1 [Example 656, 1-(6-(3-chloro-5-fluoro-4-hydroxyphenyl)-4-(4-((4-methylpiperazin-1-yl)methyl)phenylamino)quinolin-3-yl)ethanone] | 0.033 | 0.41 | 0.19 | 0.27 | 6.1 | – | –
5 | CN(C)C1CCN(c2ccc(Nc3c(C(=O)C4CC4)cnc4ccc(-c5cc(F)c(O)c(Cl)c5)cc34)cn2)C1 (stereo not drawn) [Example 691, (6-(3-chloro-5-fluoro-4-hydroxyphenyl)-4-(6-(3-(dimethylamino)pyrrolidin-1-yl)pyridin-3-ylamino)quinolin-3-yl)(cyclopropyl)methanone] | 0.012 | 0.32 | 0.18 | 0.22 | 5.9 | – | –
6 | O=C(c1cnc2ccc(-c3cc(Cl)c(O)c(Cl)c3)cc2c1Nc1ccc(N2CCC(O)C2)nc1)C1CC1 (stereo not drawn) [Example 670, cyclopropyl(6-(3,5-dichloro-4-hydroxyphenyl)-4-(6-(3-hydroxypyrrolidin-1-yl)pyridin-3-ylamino)quinolin-3-yl)methanone] | 0.0069 | 0.72 | 0.43 | 0.59 | 5.3 | – | –
7 | NC1CCCN(c2ccc(Nc3c(C(=O)C4CC4)cnc4ccc(-c5cc(F)c(O)c(F)c5)cc34)cn2)C1 (stereo not drawn) [Example 725, (4-(6-(3-Aminopiperidin-1-yl)pyridin-3-ylamino)-6-(3,5-difluoro-4-hydroxyphenyl)quinolin-3-yl)(cyclopropyl)methanone] | 0.003 | 0.012 | 0.0078 | 0.01 | 0.11 | – | –
8 | N[C@@H]1CCCN(c2ccc(Nc3c(C(=O)C4CC4)cnc4ccc(-c5cc(Cl)c(O)c(Cl)c5)cc34)cn2)C1 [Example 650, (R)-(4-(6-(3-aminopiperidin-1-yl)pyridin-3-ylamino)-6-(3,5-dichloro-4-hydroxyphenyl)quinolin-3-yl)(cyclopropyl)methanone] | 0.001 | 0.015 | 0.0099 | 0.0072 | 0.32 | – | –
9 | N[C@H]1CCCN(c2ccc(Nc3c(C(=O)C4CC4)cnc4ccc(-c5cc(Cl)c(O)c(Cl)c5)cc34)cn2)C1 [Example 646, (S)-(4-(6-(3-aminopiperidin-1-yl)pyridin-3-ylamino)-6-(3,5-dichloro-4-hydroxyphenyl)quinolin-3-yl)(cyclopropyl)methanone] | 0.0011 | – | 0.02 | – | 0.56 | 0.022 | 0.0035
10 | COc1cc(-c2ccc3ncc(C(=O)C4CC4)c(N[C@H]4CC[C@H](CN5CCC(N(C)C)C5)CC4)c3c2)cc(Cl)c1O (stereo partly drawn) [Example 668] | 0.0039 | 0.56 | 1 | 1.4 | 2.6 | – | –
11 | NC1CCN(c2cc(Nc3c(C(=O)C4CC4)cnc4ccc(-c5cc(Cl)c(O)c(Cl)c5)cc34)ccn2)CC1 [Example 735, (4-(2-(4-aminopiperidin-1-yl)pyridin-4-ylamino)-6-(3,5-dichloro-4-hydroxyphenyl)quinolin-3-yl)(cyclopropyl)methanone] | 0.0041 | 3.5 | 1 | 0.5 | 20 | – | –
12 | COc1cc(-c2ccc3ncc(C(=O)C4CC4)c(NC4CCC(N5CC[C@@H](F)C5)CC4)c3c2)cc(Cl)c1O (stereo partly drawn) [Example 645, (R)-(6-(3-chloro-4-hydroxy-5-methoxyphenyl)-4-(4-(3-fluoropyrrolidin-1-yl)cyclohexylamino)quinolin-3-yl)(cyclopropyl)methanone] | 0.0062 | 0.33 | 0.45 | 0.29 | 2.2 | – | –
13 | O=C(c1cnc2ccc(-c3cc(Cl)c(O)c(Cl)c3)cc2c1Nc1ccc(NCCO)nc1)C1CC1 [Example 678, cyclopropyl(6-(3,5-dichloro-4-hydroxyphenyl)-4-(6-(2-hydroxyethylamino)pyridin-3-ylamino)quinolin-3-yl)methanone] | 0.011 | 1.2 | 0.41 | 0.11 | 5.1 | – | –
14 | CC(=O)c1cnc2ccc(-c3cc(F)c(O)c(Cl)c3)cc2c1N[C@@H]1CC[C@@H](CN(C)C)C1 [Example 717, 1-(6-(3-chloro-5-fluoro-4-hydroxyphenyl)-4-((1R,3R)-3-((dimethylamino)methyl)cyclopentylamino)quinolin-3-yl)ethanone] | 0.011 | 0.65 | 0.42 | 0.34 | 2 | – | –
15 | COc1cc(-c2ccc3ncc(C(=O)C4CC4)c(N[C@H]4CC[C@H](CN(C)CCO)CC4)c3c2)cc(Cl)c1O [Example 633] | 0.0016 | 0.12 | 0.21 | 0.15 | 2.3 | – | –
16 | CN(C)C1CCN(C[C@H]2CC[C@H](Nc3c(C(=O)C4CC4)cnc4ccc(-c5cc(F)c(O)c(Cl)c5)cc34)CC2)C1 (stereo partly drawn) [Example 662] | 0.004 | 0.15 | 0.19 | 0.14 | 0.95 | – | –
17 | COc1cc(-c2ccc3ncc(C(C)=O)c(N[C@H]4CC[C@H](CN5CCCC5)CC4)c3c2)cc(Cl)c1O [Example 734] | 0.0016 | 0.25 | 0.51 | 0.36 | 6.4 | – | –
18 | COc1cc(-c2ccc3ncc(C(=O)C4CC4)c(Nc4ccc(CN5CCC(N(C)C)C5)cc4)c3c2)cc(Cl)c1O (stereo not drawn) [Example 697, (6-(3-chloro-4-hydroxy-5-methoxyphenyl)-4-(4-((3-(dimethylamino)pyrrolidin-1-yl)methyl)phenylamino)quinolin-3-yl)(cyclopropyl)methanone] | 0.0084 | 0.44 | 0.81 | 0.64 | 1.8 | – | –
19 | CC(=O)c1cnc2ccc(-c3cc(F)c(O)c(Cl)c3)cc2c1Nc1ccc(CCN(C)C)cc1 [Example 745, 1-(6-(3-chloro-5-fluoro-4-hydroxyphenyl)-4-(4-(2-(dimethylamino)ethyl)phenylamino)quinolin-3-yl)ethanone] | 0.0083 | 0.16 | 0.12 | 0.063 | 0.99 | – | –
20 | CN(CCO)C[C@H]1CC[C@H](Nc2c(C(=O)C3CC3)cnc3ccc(-c4cc(F)c(O)c(Cl)c4)cc23)CC1 [Example 632, (6-(3-chloro-5-fluoro-4-hydroxyphenyl)-4-((trans-4-(((2-hydroxyethyl)(methyl)amino)methyl)cyclohexyl)amino)quinolin-3-yl)(cyclopropyl)methanone] | 0.0031 | 0.1 | 0.069 | 0.069 | 0.72 | – | –
21 | CN(C)CCOc1ccc(Nc2c(C(=O)C3CC3)cnc3ccc(-c4cc(F)c(O)c(Cl)c4)cc23)cn1 [Example 710, (6-(3-Chloro-5-fluoro-4-hydroxyphenyl)-4-(6-(2-(dimethylamino)ethoxy)pyridin-3-ylamino)quinolin-3-yl)(cyclopropyl)methanone] | 0.0069 | 0.09 | 0.15 | 0.083 | 2 | – | –
22 | CC(C)C(=O)c1cnc2ccc(-c3cc(Cl)c(O)c(Cl)c3)cc2c1Nc1ccc(CN(C)C)cc1 [Example 641, 1-(6-(3,5-dichloro-4-hydroxyphenyl)-4-(4-((dimethylamino)methyl)phenylamino)quinolin-3-yl)-2-methylpropan-1-one] | 0.0076 | 0.23 | 0.22 | 0.097 | 0.74 | – | –
23 | COc1cc(-c2ccc3ncc(C(=O)C4CC4)c(Nc4ccc(NC5CCNC5)nc4)c3c2)cc(Cl)c1O (stereo not drawn) [Example 665, (6-(3-chloro-4-hydroxy-5-methoxyphenyl)-4-(6-(pyrrolidin-3-ylamino)pyridin-3-ylamino)quinolin-3-yl)(cyclopropyl)methanone] | 0.0033 | 0.53 | 0.16 | 0.22 | 3.7 | – | –
24 | O=C(c1cnc2ccc(-c3cc(F)c(O)c(Cl)c3)cc2c1N[C@H]1CC[C@H](CNCCF)CC1)C1CC1 [Example 701] | 0.003 | 0.41 | 0.29 | 0.38 | 0.98 | – | –
